Values quoted from earlier work, collected in article PMC4228152 (BMC Pulmonary Medicine, 2014).
Read-outs that look alike come from different tables or passages of the source.

Key:
[1] = tested on: PDE4
[2] = tested on: allergen induced asthmatic response
[3] = tested on: PDE4D
[4] = tested on: PDE4A
[5] = tested on: PDE4B
[6] = administered orally
[7] = tested on: monocytes; parameters: method as in PMID 11865966; details: subjects after 4 weeks treatment
[8] = inhaled inhibitor, read-out: IC50

Row | Structure (SMILES) | IC50 [1, 8] [nM] | fall in LAR ([2]; inhaled) [%] | reduction in LAR ([2]; inhaled) [%] | IC50 [3] [nM] | IC50 [4] [nM] | IC50 [5] [nM] | mean Cmax [6] | IC50 ([1]; average of three isoforms, read-out: IC50 average for PDE4-A, -B and -D) [nM] | inhibition of LPS-induced TNFα release in monocytes ex vivo [7] [fold] | reduction in LAR AUC ([2]; oral) [%] | inhibition of the maximal fall in the EAR ([2]; orally administered) | inhibition of the maximal fall in the LAR ([2]; orally administered)
1 | CS(=O)(=O)Nc1ccc(C(=O)O[C@@H](Cc2c(Cl)c[n+]([O-])cc2Cl)c2ccc(OC(F)F)c(OCC3CC3)c2)cc1OCC1CC1 [CHF6001] | 0.026 | 30 |  |  |  |  |  |  |  |  |  | 
2 | COc1cccc(Nc2c(C(N)=O)cnc3c(C)cc(S(=O)(=O)c4cccc(C(=O)N(C)C)c4)cc23)c1 [GSK256066] | 0.0032 |  | 34 |  |  |  |  |  |  |  |  | 
3 | O=C(Nc1c(Cl)cncc1Cl)c1ccc(OC(F)F)c(OCC2CC2)c1 [roflumilast] |  |  |  | […] | […] | […] | […] | 0.5 | 1.3 | 43 | 14-28% | 16-43%
